Reference: ChEMBL document CHEMBL1201862, “PubChem BioAssay data set” (2004)
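Interpolation was linear, between the two tested concentrations surrounding the appropriate level; five concentrations were tested over 48 hours in 96-well plates. Abbreviation: GI50, concentration required for 50% inhibition of growth.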 Calls of active or inactive are those of the source. No stated cut-off is given here; in the data, active = GI50 up to about 1.1 µM and inactive = higher.

What was measured:
Test in all cases: NCI anticancer screen, dose series, 48 h
[1] = tested on: SF-539
[2] = tested on: A549
[3] = tested on: HT-29
[4] = tested on: T47D
[5] = tested on: IGROV-1
[6] = tested on: MDA-N
[7] = tested on: SK-MEL-2
[8] = tested on: PC-3
[9] = tested on: MOLT-4
[10] = tested on: SN12C
[11] = tested on: DU-145
[12] = tested on: OVCAR-8
[13] = tested on: ACHN
[14] = tested on: NCI-H23
[15] = tested on: U-251
[16] = tested on: HL-60
[17] = tested on: NCI/ADR-RES
[18] = tested on: HCC 2998
[19] = tested on: KM12
[20] = tested on: SR

| SMILES | GI50 [1] | GI50 [2] | GI50 [3] | GI50 [4] | GI50 [5] | GI50 [6] | GI50 [7] | GI50 [8] | GI50 [9] | GI50 [10] | GI50 [11] | GI50 [12] | GI50 [13] | GI50 [14] | GI50 [15] | GI50 [16] | GI50 [17] | GI50 [18] | GI50 [19] | GI50 [20] |
| --- | --- | --- | --- | --- | --- | --- | --- | --- | --- | --- | --- | --- | --- | --- | --- | --- | --- | --- | --- | --- |
| CN(C)CC1CCC/C(=C\c2ccc(N(C)C)cc2)C1=O (centres undefined) | 15.3 µM (inactive) | 17.9 µM (inactive) | 2 µM (inactive) | 2.25 µM (inactive) | 3.73 µM (inactive) | 7.28 µM (inactive) | 10.2 µM (inactive) | 18.2 µM (inactive) | 4.97 µM (inactive) | 16.1 µM (inactive) | 17.1 µM (inactive) | 5.45 µM (inactive) | 19.8 µM (inactive) | 15.1 µM (inactive) | 17 µM (inactive) | > 100 µM (inactive) | 25.9 µM (inactive) | 15.9 µM (inactive) | 1.44 µM (inactive) |  |
| O=C1Oc2ccccc2C(=O)/C1=C/NC(=S)NCc1ccccc1 | 43.9 µM (inactive) | 65.2 µM (inactive) | > 100 µM (inactive) | 81.7 µM (inactive) | 38.8 µM (inactive) | 50.5 µM (inactive) | 19.3 µM (inactive) | 54.3 µM (inactive) | 54.3 µM (inactive) | 56.5 µM (inactive) | 93.1 µM (inactive) | 41.1 µM (inactive) | 25.1 µM (inactive) | 36.2 µM (inactive) | 57.3 µM (inactive) | 42.7 µM (inactive) | 66.1 µM (inactive) | 72.4 µM (inactive) | 51.6 µM (inactive) |  |
| COC(=O)C(Cc1c[nH]c2ccccc12)NP(=O)(O)OCC1OC(n2cc(I)c(=O)[nH]c2=O)CC1O (centres undefined) | > 100 µM (inactive) | > 100 µM (inactive) | > 100 µM (inactive) | > 100 µM (inactive) | > 100 µM (inactive) | > 100 µM (inactive) |  | > 100 µM (inactive) | > 100 µM (inactive) | > 100 µM (inactive) | > 100 µM (inactive) | > 100 µM (inactive) | > 100 µM (inactive) | > 100 µM (inactive) | > 100 µM (inactive) | > 100 µM (inactive) | > 100 µM (inactive) |  | > 100 µM (inactive) | > 100 µM (inactive) |
| N#CCCN(CCC#N)c1ccc(/C=C2\N=C(c3ccccc3)N(NC(N)=S)C2=O)cc1 | > 100 µM (inactive) | > 100 µM (inactive) | > 100 µM (inactive) | > 100 µM (inactive) | > 100 µM (inactive) | > 100 µM (inactive) | > 100 µM (inactive) | > 100 µM (inactive) | > 100 µM (inactive) | > 100 µM (inactive) | > 100 µM (inactive) | > 100 µM (inactive) | > 100 µM (inactive) |  | > 100 µM (inactive) | > 100 µM (inactive) | > 100 µM (inactive) |  | 12.9 µM (inactive) |  |
| Cc1nc(C)c(Cc2ccccc2)o1 | > 100 µM (inactive) | > 100 µM (inactive) | > 100 µM (inactive) | > 100 µM (inactive) | > 100 µM (inactive) | > 100 µM (inactive) |  | > 100 µM (inactive) | > 100 µM (inactive) | > 100 µM (inactive) | > 100 µM (inactive) | > 100 µM (inactive) | > 100 µM (inactive) | > 100 µM (inactive) | > 100 µM (inactive) | > 100 µM (inactive) | > 100 µM (inactive) | > 100 µM (inactive) | > 100 µM (inactive) |  |
| N/C(=N\O)N/N=C/c1cc(I)cc(I)c1O | 29.7 µM (inactive) | 49.3 µM (inactive) | 46.7 µM (inactive) | 48.1 µM (inactive) | 30.8 µM (inactive) | 82.6 µM (inactive) | 54.8 µM (inactive) | 37.2 µM (inactive) | > 100 µM (inactive) | 28.8 µM (inactive) | 31.6 µM (inactive) | 27.9 µM (inactive) | 24.1 µM (inactive) | 28 µM (inactive) | 34.8 µM (inactive) | 13.2 µM (inactive) | 2.8 µM (inactive) | 61.9 µM (inactive) | > 100 µM (inactive) |  |
| Cc1nc(O)nc(N(CCO)/N=C/c2ccc(Cl)cc2)c1C(=O)Nc1ccc(Cl)cc1 | > 100 µM (inactive) | > 100 µM (inactive) | > 100 µM (inactive) | 98.4 µM (inactive) | > 100 µM (inactive) | > 100 µM (inactive) | 34.4 µM (inactive) | > 100 µM (inactive) | > 100 µM (inactive) | > 100 µM (inactive) | > 100 µM (inactive) | 99.5 µM (inactive) | > 100 µM (inactive) | > 100 µM (inactive) | 21.3 µM (inactive) | > 100 µM (inactive) | > 100 µM (inactive) | > 100 µM (inactive) | > 100 µM (inactive) |  |
| COc1cc(O)c2c(c1)OCC(Cc1ccc(O)cc1)C2=O (centres undefined) | > 100 µM (inactive) | > 100 µM (inactive) | > 100 µM (inactive) | 45.4 µM (inactive) | > 100 µM (inactive) | > 100 µM (inactive) | > 100 µM (inactive) | > 100 µM (inactive) | > 100 µM (inactive) | > 100 µM (inactive) | > 100 µM (inactive) | > 100 µM (inactive) | > 100 µM (inactive) | > 100 µM (inactive) | > 100 µM (inactive) | > 100 µM (inactive) | > 100 µM (inactive) |  | > 100 µM (inactive) | 55.8 µM (inactive) |
| NC(=O)/C(=C\c1ccncc1)c1cccc2ccccc12 | > 100 µM (inactive) | > 100 µM (inactive) | > 100 µM (inactive) | > 100 µM (inactive) | > 100 µM (inactive) | 43.1 µM (inactive) | > 100 µM (inactive) | > 100 µM (inactive) | > 100 µM (inactive) | 34.6 µM (inactive) | 67.8 µM (inactive) | > 100 µM (inactive) | > 100 µM (inactive) | 91.6 µM (inactive) | > 100 µM (inactive) | > 100 µM (inactive) | > 100 µM (inactive) |  | > 100 µM (inactive) | 53.3 µM (inactive) |
| Fc1sc2c(c1F)C1CCC2C1 (centres undefined) | > 100 µM (inactive) | > 100 µM (inactive) | 68.9 µM (inactive) | 88.3 µM (inactive) | 51.2 µM (inactive) | 63.4 µM (inactive) | > 100 µM (inactive) | 75.7 µM (inactive) | 34.6 µM (inactive) | > 100 µM (inactive) | 85.7 µM (inactive) | > 100 µM (inactive) | > 100 µM (inactive) | 58.3 µM (inactive) | 97.7 µM (inactive) |  | 47.1 µM (inactive) | > 100 µM (inactive) | > 100 µM (inactive) |  |
| CC(C)=CCC/C(C)=C/Cc1cc(/C=C/c2cc(O)c(CC=C(C)C)c(O)c2)cc(O)c1O [MAPPAIN] | 3.79 µM (inactive) | 4.72 µM (inactive) | 4.18 µM (inactive) | 1.84 µM (inactive) | 1.76 µM (inactive) | 2.41 µM (inactive) | 2.77 µM (inactive) | 3.36 µM (inactive) | 1.93 µM (inactive) | 1.95 µM (inactive) | 13.7 µM (inactive) | 3.6 µM (inactive) | 1.48 µM (inactive) | 3.31 µM (inactive) | 2.18 µM (inactive) | 0.502 µM (active) | 3.15 µM (inactive) | 2.13 µM (inactive) | 4.29 µM (inactive) |  |
| CC(C)C1CCC(=O)CC1CCCCC1CC(=O)CC1O[Si](C)(C)C(C)(C)C (centres undefined) | 4.66 µM (inactive) | 6.03 µM (inactive) | 3 µM (inactive) | 14.2 µM (inactive) | 2.84 µM (inactive) | 4.16 µM (inactive) | 6.44 µM (inactive) | 7.53 µM (inactive) | 1.89 µM (inactive) | 5.5 µM (inactive) | 17 µM (inactive) | 3.83 µM (inactive) | 4.3 µM (inactive) | 15.5 µM (inactive) | 2.32 µM (inactive) |  | 4.25 µM (inactive) | 7.03 µM (inactive) | 2.76 µM (inactive) |  |
| CCOC(=O)/C(C(=O)Nc1ccc(F)cc1)=C(/N)N1CCCC1 | > 100 µM (inactive) | > 100 µM (inactive) | > 100 µM (inactive) | > 100 µM (inactive) | > 100 µM (inactive) | > 100 µM (inactive) | > 100 µM (inactive) | > 100 µM (inactive) | > 100 µM (inactive) | > 100 µM (inactive) | > 100 µM (inactive) | > 100 µM (inactive) | > 100 µM (inactive) | < 0.01 µM (active) | > 100 µM (inactive) | > 100 µM (inactive) | > 100 µM (inactive) | > 100 µM (inactive) | > 100 µM (inactive) |  |
| CSc1nc(Cl)c2c(n1)Sc1nc3cc4c(cc3n1C2O)OCCO4 (centres undefined) | 0.0247 µM (active) | 0.126 µM (active) | 0.0226 µM (active) | 15.4 µM (inactive) | 0.138 µM (active) | 0.0308 µM (active) | 0.923 µM (active) | 0.045 µM (active) | 0.0348 µM (active) | 0.526 µM (active) | 0.124 µM (active) | 0.106 µM (active) | 0.131 µM (active) | 0.39 µM (active) | 0.223 µM (active) |  | 0.149 µM (active) | 0.318 µM (active) | 0.06 µM (active) |  |
| COc1cc2c[n+]3c4c(c2c(OC)c1OC)CCCC4CC3 (centres undefined) |  | > 100 µM (inactive) | > 100 µM (inactive) | 27.9 µM (inactive) | > 100 µM (inactive) | > 100 µM (inactive) | > 100 µM (inactive) | > 100 µM (inactive) | > 100 µM (inactive) |  | > 100 µM (inactive) |  | > 100 µM (inactive) | 34.8 µM (inactive) | 17 µM (inactive) |  | > 100 µM (inactive) | 98.4 µM (inactive) | 30.1 µM (inactive) |  |
